Data from PMC9511493, “2-(Fluoromethoxy)-4′-(S-methanesulfonimidoyl)-1,1′-biphenyl (UCM-1306), an Orally Bioavailable Positive Allosteric Modulator of the Human Dopamine D1 Receptor for Parkinson’s Disease” (Journal of Medicinal Chemistry, 2022).

Legend:
human D1R [1] = target: T1, human D1R (Homo sapiens, UniProt P21728); assay: potentiator-mode cAMP assay (HTRF) in SK-N-MC neuroblastoma cells endogenously expressing human D1R; format: cell-based; details: no DA
T1 construct: endogenously expressed human D1R in the SK-N-MC cell line (ATCC); host or cells: SK-N-MC human neuroblastoma cells

human D1R [2] = target: T1, human D1R; assay: as above; format: cell-based; details: for Emax: SK-N-MC, read-out: % maximum increase (efficacy over DA EC70); for EC50: potency of the compound at the DA EC70 concentration
Protocol: An in-house chemical library of 250 compounds was screened using an in vitro assay measuring accumulation of cAMP in a human neuroblastoma SK-N-MC cell line stably expressing physiological levels of the D1R but not the D5R.[41] To assess allosteric modulation of the D1R, cells were treated with a fixed concentration of the test compounds (10 μM) for 15 min and then co-incubated with increasing concentrations of the endogenous agonist DA. The cAMP concentration was quantified by homogeneous time-resolved fluorescence energy transfer (HTRF) and the effect of each compound on the DA concentration–response curve was measured.
The PAM efficacy was measured as the percentage of increase over DA EC70 and the potency as the EC50 observed in the concentration–response curve.
Functional studies at human D1 and D2 receptors were carried out in endogenously expressed human D1R in the SK-N-MC cell line (ATCC), and recombinant human D2R stably transfected in an in-house CHO cell line. Cells were thawed and seeded into a black 96-well plate (1 × 10^4 cells/well for SK-N-MC cell line, 5 × 10^3 cells/well for CHO cell line) in Opti-MEM containing 500 μM IBMX (3-isobutyl-1-methylxanthine).

[3] = tested on: reserpinized C57BL/6 mice; assay: locomotor activity in reserpinized mice; format: in vivo, mouse; details: reserpine 2.5 mg/kg sc; 26 30 mg/kg po; L-DOPA 100 or 400 mg/kg ip
Protocol: The study was carried out in male C57BL/6 wild-type (22–25 g) mice that were acclimatized for 5 days. Animals were randomized based on body weight into six groups (G1 to G6), ten animals per group (n = 10), being group G1 the naïve control group. Animals were fed with standard diet ad libitum. Animals were dosed with subcutaneous administration of reserpine (2.5 mg/kg in DMSO/saline) and after 20 h they were treated with a vehicle (10 mL/kg, po), compound 26 (30 mg/kg, po), L-DOPA (100 or 400 mg/kg, ip) + carbidopa (100 mg/kg, ip) and/or their combination, as indicated in Figure 7. The vehicle employed for compound 26 administration was 5% NMP + 5% solutol HS-15 + 90% normal saline. L-DOPA and carbidopa were administered 30 min prior to start of locomotor activity recording. Compound 26 was administered and 15 min later, mice were placed in the locomotor activity cage to measure the locomotor activity for 60 min (total distance travelled) using ALL Maze version 0.5 automated software enabled with video tracking system. After the activity sessions, raw data were reduced using ALL Maze 5.0 software and Microsoft Excel. Statistical analysis was done with GraphPad Prism-5 using one way ANOVA followed by Dunnett’s test/Tukey’s post hoc test and/or two-way ANOVA followed by Bonferroni post hoc test. Data were considered statistically significant, if P value was less than 0.05.

[4] = concentration–response curve of the compound over DA EC70

T1 sequence (P21728 whole entry): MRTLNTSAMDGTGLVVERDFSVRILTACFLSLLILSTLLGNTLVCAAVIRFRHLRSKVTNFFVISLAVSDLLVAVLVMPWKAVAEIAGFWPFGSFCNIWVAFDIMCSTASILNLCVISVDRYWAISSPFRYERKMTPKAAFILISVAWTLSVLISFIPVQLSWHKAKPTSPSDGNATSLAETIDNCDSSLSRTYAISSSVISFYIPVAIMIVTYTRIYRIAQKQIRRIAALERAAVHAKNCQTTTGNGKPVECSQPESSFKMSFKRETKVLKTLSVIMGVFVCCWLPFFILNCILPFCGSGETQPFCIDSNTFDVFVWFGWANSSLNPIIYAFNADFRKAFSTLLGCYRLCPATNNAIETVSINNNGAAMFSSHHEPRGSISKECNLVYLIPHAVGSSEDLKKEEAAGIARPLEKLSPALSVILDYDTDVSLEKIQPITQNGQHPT

SMILES	Emax (human D1R [2]; [4])	EC50 (human D1R [2])	further results
C[S@](=N)(=O)c1ccc(-c2ccccc2OCF)cc1 [(S)-26, (S)-2-(Fluoromethoxy)-4′-(S-methanesulfonimidoyl)-1,1′-biphenyl]	–	–	cAMP response in the absence of DA (agonist activity) (human D1R [1]): no agonist activity
O=Cc1ccc(-c2ccccc2SC(F)F)cc1 [Compound 10, 2′-[(Difluoromethyl)sulfanyl][1,1′-biphenyl]-4-carbaldehyde]	101 ± 10%	21.8 ± 3.6 µM	melting point: 46 to 47 °C
CS(=O)(=O)c1ccc(-c2ccccc2OCF)cc1 [Compound 20]	30 ± 8%	13.1 ± 2.8 µM	–
C[S+]([O-])c1ccc(-c2ccccc2OCF)cc1 (stereo not shown) [Compound 23]	73 ± 6%	21.7 ± 5.8 µM	–
CCS(=N)(=O)c1ccc(-c2ccccc2OCF)cc1 (stereo not shown) [Compound 25]	50 ± 7%	30.2 ± 2.4 µM	–
CN=S(C)(=O)c1ccc(-c2ccccc2OCF)cc1 (stereo not shown) [Compound 27]	33 ± 3%	15.9 ± 2.7 µM	–
C[S@@](=N)(=O)c1ccc(-c2ccccc2OCF)cc1 [Compound (R)-26, (R)-2-(Fluoromethoxy)-4′-(S-methanesulfonimidoyl)-1,1′-biphenyl]	–	–	cAMP response in the absence of DA (agonist activity) (human D1R [1]): no agonist activity
N[C@@H](Cc1ccc(O)c(O)c1)C(=O)O [L-DOPA, reference compound]	–	–	recovery of decreased locomotor activity, substance alone [3]: small recovery of decreased locomotor activity

Now from value to molecule, other results behind:

Emax (human D1R [2]; [4])	EC50 (human D1R [2])	SMILES	further results
37 ± 5%	2.3 ± 0.4 µM	O=Cc1ccc(-c2ccc(OC(F)F)cc2)cc1 [Compound 5]	–
35 ± 7%	10.8 ± 1.6 µM	O=Cc1ccc(-c2cccc(OC(F)F)c2)cc1 [Compound 6]	–
62%	18.5 ± 2.7 µM	O=Cc1ccc(-c2ccccc2OC(F)F)cc1 [Compound 7]	% maximum increase (efficacy over DA EC70) (human D1R [2]; [4]): 62 ± 10%
42 ± 7%	4.93 ± 1.2 µM	NS(=O)(=O)c1ccc(-c2ccccc2OCF)cc1 [Compound 18]	–
28 ± 8%	1.26 ± 0.7 µM	CNS(=O)(=O)c1ccc(-c2ccccc2OCF)cc1 [Compound 19]	–
